For one assay, the system named is A549. Nature of the assay: activity of the taxoids on A549 (procedure of Riou, Naudin and Lavelle). Type of assay: cell-based. Particulars: Homo sapiens, A549, read-out: A549. Here is the method:
(§1) The activity of the compounds of the present invention were determined following the proceeding described by Riou, Naudin and Lavelle in Biochemical and Biophysical Research Communications; Vol. 187, No1, 1992, p 164-170.

A further assay has as its system MCF7. Briefly: activity of the taxoids on MCF7 (procedure of Riou, Naudin and Lavelle). Type of assay: cell-based. Particulars: Homo sapiens, MCF7, read-out: MCF7. The protocol:
as §1

The test system of another assay is COLO 205 cells. Briefly: in vitro potency of huC242-Taxoid conjugate and free taxoid, WST-8 assay, antigen positive cells. It is filed as cell-based. Particulars: human colon cancer COLO 205 cells (antigen positive), 4 days. Here is the method: (§2) Samples of free taxoid or huC242-Taxoid conjugate were added to a 96-well flat bottomed tissue culture plate and titrated using serial dilutions ranging from 1×10^−12 M to 3×10^−7 M. Human colon tumor cells, COLO 205, or human melanoma cells, A-375, were added to the wells in such a way that there were triplicate samples for each drug concentration for each cell line. The plates were incubated at 37° C. in an atmosphere of 5% CO2 for 4 days.
(§3) At the end of the incubation period, 20 μl of the tetrazolium reagent WST-8 (2-(2-methoxy-nitrophenyl)-3-(4-nitrophenyl)-5-(2,4-disulfophenyl)-2-tetrazolium, monosodium salt]) was added to each well, and the plates were returned to the incubator for 2 hours. The absorbance in each well of the plates was then measured using the Molecular Devices plate reader at 450 nm. Surviving fraction of cells at each concentration of taxoid or conjugate are plotted in FIGS. 2a, b.
In general terms: Tetrazolium dyes change colour on reduction, which living cells bring about.

Another assay relates to A-375 cells. Nature of the assay: in vitro potency of huC242-Taxoid conjugate and free taxoid, WST-8 assay, antigen negative cells. The note with it: for IC50: human melanoma A-375 cells (antigen negative), 4 days, WST-8. It is filed as cell-based, human. The protocol: as §2, §3

Turning to `COc1ccc(OC)c(C(=O)O[C@H]2[C@@H]3[C@]4(OC(C)=O)CO[C@@H]4C[C@H]4O[C@@H]([C@H](OC(=O)N(C)C)C5=C(C)[C@@H](OC(=O)[C@H](O)[C@H](C=C(C)C)NC(=O)OC(C)(C)C)C[C@]2(O)C5(C)C)[C@@]34C)c1` [IGT-15-014], the IC50 with A549 came out at 0.03 nM; in the assay with MCF7, 0.024 nM.

Take `COc1ccc(OC)c(C(=O)O[C@H]2[C@@H]3[C@]4(OC(C)=O)CO[C@@H]4C[C@H]4O[C@@H]([C@H](OC(=O)NCC(C)(C)SSC)C5=C(C)[C@@H](OC(=O)[C@H](O)[C@@H](NC(=O)OC(C)(C)C)c6ccco6)C[C@]2(O)C5(C)C)[C@@]34C)c1` [IGT-15-075, 7α,9α-epoxy-3′-dephenyl-3′-(2-furyl)-2-debenzoyl-2-(2,5-dimethoxybenzoyl)-10-(N-2,2-dimethyl-2-methyidithio-ethylcarbamoyl)-docetaxel]: the IC50 in the assay on COLO 205 cells (96 h) and with A-375 cells (96 h) was about 0.1 nM throughout.

B1: huC242-taxoid (conjugate, chains of the INN, looked up)
VH: QVQLVQSGAEVKKPGETVKISCKASDYTFTYYGMNWVKQAPGQGLKWMGWIDTTTGEPTYAQKFQGRIAFSLETSASTAYLQIKSLKSEDTATYFCARRGPYNWYFDVWGQGTTVTVSS
VL: DIVMTQSPLSVPVTPGEPVSISCRSSKSLLHSNGNTYLYWFLQRPGQSPQLLIYRMSNLVSGVPDRFSGSGSGTAFTLRISRVEAEDVGVYYCLQHLEYPFTFGPGTKLELK
modifications: taxoid payload conjugate
For B1, the IC50 in the assay on COLO 205 cells was determined as 0.08 nM; in the assay with A-375 cells it was 12 nM. The “fold less sensitive, antigen negative cells vs COLO 205” value with A-375 cells (A-375 versus COLO 205) is given as “about 150 fold”.

Source of the values: patent US7667054B2, “Cytotoxic agents comprising new taxanes” (priority 2004, dated 2010).
